Test results from ChEMBL document CHEMBL1201862, “PubChem BioAssay data set” (2004).
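Briefly, cells in 96-well plates were exposed to five compound concentrations for 48 h, and endpoints were estimated by linear interpolation. GI50 = concentration required for 50% inhibition of growth.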 Activity calls are given as the source filed them. Rule as the data show it: active = GI50 up to about 1.1 µM and inactive = higher.

Experiments:
Experiment in all cases: DTP human tumour cell line panel, 48 h
PC-3 = system: PC-3
OVCAR-4 = system: OVCAR-4
SK-MEL-2 = system: SK-MEL-2
SN12C = system: SN12C
COLO 205 = system: COLO 205
SK-OV-3 = system: SK-OV-3
MCF7 = system: MCF7
KM12 = system: KM12
NCI/ADR-RES = system: NCI/ADR-RES
BT-549 = system: BT-549
HT-29 = system: HT-29
T47D = system: T47D
MDA-MB-231 = system: MDA-MB-231
SF-268 = system: SF-268
HCC 2998 = system: HCC 2998
786-0 = system: 786-0
RXF 393 = system: RXF 393
HL-60 = system: HL-60
LOX IMVI = system: LOX IMVI
A498 = system: A498
UACC-257 = system: UACC-257
A549 = system: A549
OVCAR-3 = system: OVCAR-3
NCI-H522 = system: NCI-H522
SNB-19 = system: SNB-19
DU-145 = system: DU-145
Hs-578T = system: Hs-578T
CAKI-1 = system: CAKI-1
SK-MEL-28 = system: SK-MEL-28
SF-295 = system: SF-295
K562 = system: K562
OVCAR-8 = system: OVCAR-8
HOP-92 = system: HOP-92
SNB-75 = system: SNB-75
UACC-62 = system: UACC-62
M14 = system: M14
HCT-15 = system: HCT-15
HOP-62 = system: HOP-62
MDA-N = system: MDA-N
MOLT-4 = system: MOLT-4
SF-539 = system: SF-539
Malme-3M = system: Malme-3M
HCT-116 = system: HCT-116
NCI-H460 = system: NCI-H460
UO-31 = system: UO-31
IGROV-1 = system: IGROV-1
NCI-H226 = system: NCI-H226
NCI-H23 = system: NCI-H23
MDA-MB-435 = system: MDA-MB-435
TK-10 = system: TK-10
SR = system: SR
U-251 = system: U-251
SK-MEL-5 = system: SK-MEL-5
OVCAR-5 = system: OVCAR-5
RPMI-8226 = system: RPMI-8226
CCRF-CEM = system: CCRF-CEM
EKVX = system: EKVX
ACHN = system: ACHN
SW-620 = system: SW-620
M19-MEL = system: M19-MEL
LXFL 529 = system: LXFL 529
DLD-1 = system: DLD-1

## CCOC(=O)CC[C@H](NC(=O)[C@H](N)Cc1ccc(N(CCCl)CCCl)cc1)C(=O)OCC
PC-3
  GI50: 20.8 µM (inactive)
OVCAR-4
  GI50: 13.1 µM (inactive)
SK-MEL-2
  GI50: 29.4 µM (inactive)
SN12C
  GI50: 14.2 µM (inactive)
COLO 205
  GI50: 20.7 µM (inactive)
SK-OV-3
  GI50: 36.3 µM (inactive)
MCF7
  GI50: 20.6 µM (inactive)
KM12
  GI50: 16 µM (inactive)
NCI/ADR-RES
  GI50: 9.42 µM (inactive)
BT-549
  GI50: 26.2 µM (inactive)
HT-29
  GI50: 36.1 µM (inactive)
T47D
  GI50: 8.07 µM (inactive)
MDA-MB-231
  GI50: 29.4 µM (inactive)
SF-268
  GI50: 1.43 µM (inactive)
HCC 2998
  GI50: 18.3 µM (inactive)
786-0
  GI50: 9.55 µM (inactive)
RXF 393
  GI50: 14.2 µM (inactive)
HL-60
  GI50: 5.3 µM (inactive)
LOX IMVI
  GI50: 11.6 µM (inactive)
A498
  GI50: > 100 µM (inactive)
UACC-257
  GI50: 11 µM (inactive)
A549
  GI50: 35.4 µM (inactive)
OVCAR-3
  GI50: 8.28 µM (inactive)
NCI-H522
  GI50: 4.53 µM (inactive)
SNB-19
  GI50: 27.6 µM (inactive)
DU-145
  GI50: 13.2 µM (inactive)
Hs-578T
  GI50: 22.3 µM (inactive)
CAKI-1
  GI50: 4.65 µM (inactive)
SK-MEL-28
  GI50: 21.6 µM (inactive)
SF-295
  GI50: 29.2 µM (inactive)
K562
  GI50: 22.6 µM (inactive)
OVCAR-8
  GI50: 10.6 µM (inactive)
HOP-92
  GI50: 3.64 µM (inactive)
SNB-75
  GI50: 12 µM (inactive)
UACC-62
  GI50: 2.68 µM (inactive)
M14
  GI50: 8.65 µM (inactive)
HCT-15
  GI50: 18.1 µM
HOP-62
  GI50: 21.6 µM (inactive)
MDA-N
  GI50: 23.2 µM (inactive)
MOLT-4
  GI50: 0.386 µM (active)
SF-539
  GI50: 9.66 µM (inactive)
Malme-3M
  GI50: 3.61 µM (inactive)
HCT-116
  GI50: 22.2 µM (inactive)
NCI-H460
  GI50: 2.61 µM (inactive)
UO-31
  GI50: 14.1 µM (inactive)
IGROV-1
  GI50: 40.6 µM (inactive)
NCI-H226
  GI50: > 34.7 µM (inactive)
NCI-H23
  GI50: 3.08 µM (inactive)
MDA-MB-435
  GI50: 26.9 µM (inactive)
TK-10
  GI50: > 54.5 µM (inactive)
SR
  GI50: 1.91 µM (inactive)
U-251
  GI50: 16.8 µM (inactive)
SK-MEL-5
  GI50: 10.4 µM (inactive)
OVCAR-5
  GI50: 26.4 µM (inactive)
RPMI-8226
  GI50: 19.6 µM (inactive)
CCRF-CEM
  GI50: 1.14 µM (inactive)
EKVX
  GI50: > 42.6 µM (inactive)
ACHN
  GI50: 4.76 µM (inactive)
SW-620
  GI50: 18 µM (inactive)

## CCOC(=O)/C(C#N)=C1/Sc2c(ncn(/N=C/c3ccc(OC)cc3)c2=O)N1c1ccccc1
COLO 205
  GI50: > 100 µM (inactive)
SK-OV-3
  GI50: 40.4 µM (inactive)
KM12
  GI50: > 100 µM (inactive)
HT-29
  GI50: 70.6 µM (inactive)
M19-MEL
  GI50: 74 µM (inactive)
SF-268
  GI50: 14.8 µM (inactive)
HCC 2998
  GI50: > 100 µM (inactive)
LXFL 529
  GI50: 41.1 µM (inactive)
HL-60
  GI50: > 100 µM (inactive)
UACC-257
  GI50: 29.2 µM (inactive)
DLD-1
  GI50: > 100 µM (inactive)
A549
  GI50: 67.8 µM (inactive)
OVCAR-3
  GI50: 41.4 µM (inactive)
NCI-H522
  GI50: 25.4 µM (inactive)
SNB-19
  GI50: 33.5 µM (inactive)
SK-MEL-28
  GI50: 28.7 µM (inactive)
SF-295
  GI50: 19.1 µM (inactive)
K562
  GI50: 62.5 µM (inactive)
OVCAR-8
  GI50: 40.6 µM (inactive)
HOP-92
  GI50: 13.9 µM (inactive)
UACC-62
  GI50: 31.1 µM (inactive)
HOP-62
  GI50: 22.2 µM (inactive)
MOLT-4
  GI50: > 100 µM (inactive)
SF-539
  GI50: 14.8 µM (inactive)
HCT-116
  GI50: > 100 µM (inactive)
NCI-H460
  GI50: 28.9 µM (inactive)
UO-31
  GI50: > 100 µM (inactive)
IGROV-1
  GI50: 56.2 µM (inactive)
NCI-H226
  GI50: 36.1 µM (inactive)
NCI-H23
  GI50: 54.8 µM (inactive)
TK-10
  GI50: 50.2 µM (inactive)
SR
  GI50: > 100 µM (inactive)
U-251
  GI50: 37.4 µM (inactive)
SK-MEL-5
  GI50: > 100 µM (inactive)
RPMI-8226
  GI50: > 100 µM (inactive)
CCRF-CEM
  GI50: > 100 µM (inactive)
ACHN
  GI50: > 100 µM (inactive)
SW-620
  GI50: > 100 µM (inactive)

## CC(C)c1cc(C(C)C)c(P2(=O)CC3C(Cl)(Cl)C3(C)C2)c(C(C)C)c1 (stereo unspecified)
PC-3
  GI50: 6.7 µM (inactive)
OVCAR-4
  GI50: 4.94 µM (inactive)
SK-MEL-2
  GI50: 11.3 µM (inactive)
SN12C
  GI50: 12.3 µM (inactive)
COLO 205
  GI50: 11.7 µM (inactive)
SK-OV-3
  GI50: 16.4 µM (inactive)
MCF7
  GI50: 7.31 µM (inactive)
KM12
  GI50: 10.6 µM (inactive)
NCI/ADR-RES
  GI50: 6.04 µM (inactive)
BT-549
  GI50: 13.7 µM (inactive)
HT-29
  GI50: 9.33 µM (inactive)
T47D
  GI50: 6.44 µM (inactive)
MDA-MB-231
  GI50: 11.4 µM (inactive)
SF-268
  GI50: 12.1 µM (inactive)
HCC 2998
  GI50: 13.4 µM (inactive)
786-0
  GI50: 6.22 µM (inactive)
RXF 393
  GI50: 12.9 µM (inactive)
HL-60
  GI50: 4.2 µM (inactive)
LOX IMVI
  GI50: 6.68 µM (inactive)
A498
  GI50: 13.8 µM (inactive)
UACC-257
  GI50: 7.96 µM (inactive)
A549
  GI50: 9.33 µM (inactive)
OVCAR-3
  GI50: 7.57 µM (inactive)
NCI-H522
  GI50: 2.09 µM (inactive)
SNB-19
  GI50: 7.91 µM (inactive)
DU-145
  GI50: 14.5 µM (inactive)
Hs-578T
  GI50: 17.3 µM (inactive)
CAKI-1
  GI50: 4.71 µM (inactive)
SK-MEL-28
  GI50: 15.8 µM (inactive)
SF-295
  GI50: 7.31 µM (inactive)
K562
  GI50: 8.95 µM (inactive)
OVCAR-8
  GI50: 7.67 µM (inactive)
HOP-92
  GI50: 12.2 µM (inactive)
SNB-75
  GI50: 11.6 µM (inactive)
UACC-62
  GI50: 8.04 µM (inactive)
M14
  GI50: 8.71 µM (inactive)
HCT-15
  GI50: 9.53 µM
HOP-62
  GI50: 10.3 µM (inactive)
MDA-N
  GI50: 10.9 µM (inactive)
MOLT-4
  GI50: 2.77 µM (inactive)
SF-539
  GI50: 14 µM (inactive)
Malme-3M
  GI50: 17.5 µM (inactive)
HCT-116
  GI50: 7.29 µM (inactive)
NCI-H460
  GI50: 11.5 µM (inactive)
UO-31
  GI50: 1.86 µM (inactive)
IGROV-1
  GI50: 12.1 µM (inactive)
NCI-H226
  GI50: 16.7 µM (inactive)
NCI-H23
  GI50: 9.55 µM (inactive)
MDA-MB-435
  GI50: 9.73 µM (inactive)
TK-10
  GI50: 12.1 µM (inactive)
SR
  GI50: 1.74 µM (inactive)
U-251
  GI50: 8.67 µM (inactive)
SK-MEL-5
  GI50: 10.1 µM (inactive)
OVCAR-5
  GI50: 16.3 µM (inactive)
RPMI-8226
  GI50: 3.24 µM (inactive)
CCRF-CEM
  GI50: 2.24 µM (inactive)
EKVX
  GI50: 15.8 µM (inactive)
ACHN
  GI50: 12.5 µM (inactive)
SW-620
  GI50: 7.55 µM (inactive)
